Assay results taken from patent US5028727A, “Platinum-(IV)-diamine complex” (Nederlandse Organisatie Voor …, priority 1988, dated 1991).
Entries after “also recorded” stand apart in the source; their conditions may differ.

Key:
B16-F10 murine melanoma = assay: In vitro cytotoxicity, B16-F10 murine melanoma; type: cell-based; conditions: 72 hours incubation, crystal violet
Experimental: (§1) Logarithmically growing cells were harvested by mild trypsinisation and 4,000 cells were added to a microtitre plate with 96 wells (Costar). […] Formalin (10%) in a phosphate-buffered physiological saline solution was added and the cells were fixed for 10 minutes.

[1] = tested on: HCT-116 human colon carcinoma; assay: In vitro cytotoxicity, HCT-116 human colon carcinoma; type: cell-based; conditions: HCT116; 72 hours incubation; crystal violet
Experimental: as §1

[2] = tested on: A2780 human ovary carcinoma; assay: In vitro cytotoxicity, A2780 human ovary carcinoma; type: cell-based; conditions: 72 hours incubation, crystal violet
Experimental: as §1

A2780/124 = assay: In vitro cytotoxicity, A2780/124 sub-line resistant to cis-platinum; type: cell-based, human; conditions: for IC50: A2780/124, 72 hours incubation, crystal violet
Experimental: as §1

A2780/DDP = assay: In vitro cytotoxicity, A2780/DDP sub-line resistant to cis-platinum; type: cell-based, human; conditions: for IC50: A2780/DDP, 72 hours incubation, crystal violet
Experimental: as §1

L1210 murine leukaemia = assay: Activity against L1210 murine leukaemia; type: in vivo, CDF1 mice; conditions: for % T/C: once on day 1
Experimental: The platinum complex was investigated for anti-tumour action against L1210 murine leukaemia. CDF1 mice with a weight of 20 g were inoculated intraperitoneally with 10^6 ascitic cells of L1210 leukaemia. The administration of the active complex was started the day following the intraperitoneal implantation of the tumour. The complex was administered in diverse amounts by intraperitoneal injections. Groups of 6 mice were used for each dose and they were treated with a single dose of the complex on the treatment day. A group of ten control mice treated with a physiological saline solution was included in the experiment. Mice treated with cis-diamine-dichloro-platinum (cis-platinum) were included as positive comparisons. The mice were weighed before the treatment and again on the fifth or sixth day and the average change in weight was taken as a measure of the toxicity. The animals were assessed daily for mortality and the experiments were ended after 30 days. The tumour activity was determined on the basis of % T/C, which is the ratio of mean survival time of the group treated with the active complex relative to the mean survival time of the control group treated with a physiological saline solution times 100. The mice treated with physiological saline solution usually have a mean survival time of 7 days. A compound is regarded as active when this gives a T/C ≥125%.
=Dose is mg/kg administered i.p., once on day 1.

B16 melanoma = assay: Action against B16 melanoma; type: in vivo, BDF1 mice; conditions: day 1-9
Experimental: BDF1 mice, 10 per group, are inoculated intraperitoneally with 0.5 ml of a 10% (weight/vol) homogeneous tissue suspension of B16 melanoma. Intraperitoneal treatment with the active compound was started one day after the implantation and continued daily for a total of 9 days. The control group treated with a physiological saline solution and groups treated with cis-platinum were included in each experiment. The mice were assessed daily for survival and tests were stopped after 60 days. The mean survival time of the mice treated with the active agent relative to that of the comparison (% T/C) was used as a measure for the anti-tumour action. A compound is regarded as active with a % T/C of 125%.
=Dose is mg/kg per injection administered i.p. on day 1-9

M5076 sarcoma = assay: Action against subcutaneously implanted M5076 sarcoma; type: in vivo, BDF1 mice; conditions: day 5, 9, 13 and 17
Experimental: The complex was also assessed for anti-tumour action against subcutaneously implanted M5076 sarcoma. BDF1 mice, 8 per group, were inoculated subcutaneously with a fragment of a M5076 tumour. The mice were treated intravenously starting 5 days after the implantation and again on days 9, 13 and 17. […] Four doses of the complex were tested. A comparison group treated with physiological saline solution and groups treated with cis-platinum are included in this experiment. The mice were assessed daily for survival and the tests were ended after 75 to 80 days.

[3] = tested on: tumour cells resistant to cis-platinum (A2780/124 and A2780/DDP); assay: Action against tumour cells resistant to cis-platinum; type: cell-based, human
Experimental: For cis-platinum the corresponding values are 10 and 12.6 respectively.
as §1

tumours = conditions: Rosenberg et al., Nature 222 (1969); cited from earlier work
[4] = resistance criterion: ratio ≥4.0

| SMILES | IC50 (B16-F10 murine melanoma) | IC50 [1] | IC50 [2] | IC50 (A2780/124) | IC50 (A2780/DDP) | % T/C (L1210 murine leukaemia; 4 mg/kg i.p.) | % T/C (L1210 murine leukaemia; 6 mg/kg i.p.) | % T/C (L1210 murine leukaemia; 8 mg/kg i.p.) | % T/C (B16 melanoma; 0.4 mg/kg per injection i.p.) | % T/C (B16 melanoma; 0.8 mg/kg per injection i.p.) | % T/C (B16 melanoma; 1.6 mg/kg per injection i.p.) | % T/C (B16 melanoma; 2.4 mg/kg per injection i.p.) | % T/C (M5076 sarcoma; 3 mg/kg i.v.) | % T/C (M5076 sarcoma; 4 mg/kg i.v.) | also measured |
| --- | --- | --- | --- | --- | --- | --- | --- | --- | --- | --- | --- | --- | --- | --- | --- |
| NCC1(CN)CCCC1.O=S(=O)([O-])[O-].[Cl][Pt+2][Cl] [TNO-40, Cis-sulphato-trans-dichloro-1,1-bis(aminomethyl)cyclopentane-platinum-(IV)] | 7.4 µg/mL | 16 µg/mL | 6.4 µg/mL | 21 µg/mL | 23 µg/mL | 193% | 186% | 180% | 137% | 163% | 139% | 83% | 126% | 125% | % T/C (L1210 murine leukaemia; 2,5 mg/kg i.p.): 179%; anti-tumour action against L1210 murine leukaemia (L1210 murine leukaemia; active = T/C ≥125%, all doses investigated): active at all doses investigated; % T/C (B16 melanoma; 0.2 mg/kg per injection i.p.): 127%; toxicity (M5076 sarcoma; 5 mg/kg i.v.): toxic; toxicity (M5076 sarcoma; 6 mg/kg i.v.): toxic; action against cell lines resistant to cis-platinum [3]: exhibits an anti-tumor action; also recorded: surprisingly good action |
| N.N.[Cl][Pt][Cl] [Cis-platinum, cis-diamine-dichloroplatinum] | 9.8 µg/mL | 8.5 µg/mL | 2.3 µg/mL | 23 µg/mL | 28 µg/mL | 131% | 138% | 131% | 117% | 137% | 171% | 146% | 134% | 135% | ratio IC50 A2780/124 to IC50 A2780 (A2780/124; [4]): 10; ratio IC50 A2780/DDP to IC50 A2780 (A2780/DDP; [4]): 12.6; % T/C (L1210 murine leukaemia; 10 mg/kg i.p.): 138%; T-C (mean time for tumours to reach 1 gram, treated relative to untreated) (M5076 sarcoma; 3 mg/kg i.v.): 18.3 days; T-C (mean time for tumours to reach 1 gram, treated relative to untreated) (M5076 sarcoma; 4 mg/kg i.v.): 16.3 days; % T/C (M5076 sarcoma; 5 mg/kg i.v.): 131%; T-C (mean time for tumours to reach 1 gram, treated relative to untreated) (M5076 sarcoma; 5 mg/kg i.v.): 20.5 days; % T/C (M5076 sarcoma; 6 mg/kg i.v.): 121%; T-C (mean time for tumours to reach 1 gram, treated relative to untreated) (M5076 sarcoma; 6 mg/kg i.v.): 20 days; anti-tumour activity (tumours): very strong anti-tumour activity |
